This is an account of results in US20240050398A1, “METHOD AGAINST SNAKE ENVENOMATION” (UBI PHARMA INC., priority 2022, published 2024).

Holding throughout (assay type): in vivo
Experiment [1] relates to venom of Protobothrops mucrosquamatus. The experiment is described as follows: Efficacy against death caused by hemotoxic venom in ICR mice (flavonoid pre-mixed with venom, intradermal injection). The note with it: venom 2.5 × LD50 per mouse, flavonoid 50 nmole per mouse. The procedure: The ICR mice were randomly divided into four groups, which included a pathological control group, two experimental groups (i.e., experimental groups 1 and 2), and one comparative group (n=7 mice in each group). Next, a respective one of the isorhamnetin, the quercetin, and the apigenin was mixed with a venom of Protobothrops mucrosquamatus in a volume ratio of 1:20, followed by incubation at 37° C. for 30 minutes, thereby forming a respective mixture solution. Afterward, the respective ICR mouse of each of the experimental groups 1 and 2 and the comparative group was intradermally injected with a suitable amount of the mixture solution as shown in Table 2 below. In addition, the respective ICR mouse in the pathological control group was intradermally injected with the venom of Protobothrops mucrosquamatus.
Subsequently, the survival number of the ICR mice in each group was observed and recorded at every hour until 10 hours after injection with the treating agent. The viability percentage (%) of the ICR mice in each group was calculated using the following Equation (1):
where A=viability percentage (%)
B=survival number of the ICR mice at every hour until 10 hours after injection with treating agent

Experiment [2] concerns snake venom protein mixture (cardiotoxins and high molecular weight proteins from the venom of Naja atra). Briefly: Cutaneous ulceration caused by snake venom proteins in ICR mice, intradermal injection. The note with it: for area of cutaneous ulcers compared to pathological control group (in words): 24th hour after injection, 50 nmole per mouse pre-mixed with 0.1 mL snake venom protein mixture, intradermal; for median effective dose (ED50) for reducing an area of a cutaneous ulcer: administered via intradermal injection. From the text:
(§1) For further study of the efficacy of isorhamnetin and quercetin in alleviating cutaneous ulceration caused by snake venom proteins, the applicants conducted experiments using a snake venom protein mixture containing snake venom proteins having a molecular weight of not lower than 43 kD and a cardiotoxin that might cause tissue necrosis, so as to avoid sudden death of the ICR mice due to other toxins that might have interfered with the observation.
(§2) First, cardiotoxins were isolated from a suitable amount of the venom of Naja atra with reference to the methods descried in SC Sue et al., (2001), Biochemistry, 40, 12782-12794. […] Next, the cardiotoxins and the high molecular weight proteins were mixed, so as to obtain a snake venom protein mixture containing 0.5 mg/mL of the cardiotoxins and 0.025 mg/mL of the high molecular weight proteins.
First, the ICR mice were randomly divided into three groups, including a pathological control group and two experimental groups (i.e., experimental groups 1 and 2) (n=7 mice in each group). Next, a respective one of the quercetin and isorhamnetin was mixed with a suitable amount of the snake venom protein mixture in a volume ratio of 1:20, followed by incubation at 37° C. for […], thereby forming a respective mixture solution. Afterward, the respective ICR mouse of the experimental groups 1 and 2 was intradermally injected with a suitable amount of the mixture solution as shown in Table 4 below. In addition, the respective ICR mouse in the pathological control group was intradermally injected with the snake venom protein mixture.
At the 24th hour after injection with the treating agent, cutaneous ulcers occurring in the ICR mice of each group were photographed and the area thereof was analyzed using ImageJ software.

Experiment [3] has the same test system. The experiment is described as follows: Cutaneous ulceration caused by snake venom proteins in ICR mice, topical administration. The note with it: via topical administration.
Source text: as §1, §2
For further evaluating whether or not a similar result, as that of the experimental group 2 in Section A of this example, could be obtained when the isorhamnetin was applied via topical administration immediately after a subject suffered from a venomous snake bite, the following experiments were conducted.
First, 3.1 mg of the isorhamnetin was mixed with 1 mL of petroleum jelly in a melted state at 45° C., thereby obtaining an isorhamnetin ointment. […]

Experiment [4] has as its system venom of Naja nivea. The experiment is described as follows: Efficacy of isorhamnetin in alleviating toxicity from neurotoxic venom in ICR mice (isorhamnetin injected 30 minutes after venom). Conditions: 48th hour after injection; isorhamnetin 50 nmole per mouse 30 minutes after venom 2.5 × LD50. As to the method:
To closely simulate conditions of an emergency treatment in which the subject was a victim of a venomous snake bite, in this application, the ICR mice were injected with the venom of Naja nivea and the isorhamnetin separately (with a time interval therebetween) instead of simultaneously (i.e., mixed in advance for injection).
First, the ICR mice were randomly divided into two groups, including a pathological control group (i.e., pathological control group 7) and an experimental group (i.e., experimental group 7) (n=7 mice in each group). Next, the respective ICR mouse in each group was intradermally injected with a suitable amount of the venom of Naja nivea (dose: 2.5×LD50 per mouse). After 30 minutes, the respective ICR mouse in the experimental group was intradermally injected again with a suitable amount of the isorhamnetin (dose: 50 nmole per mouse).
Subsequently, the survival number of the ICR mice in each group was observed and recorded at every hour until 48 hours after injection with the treating agent. The viability percentage (%) of the ICR mice in each group was calculated using the Equation (1).

Structures are written as SMILES. Entries after “also recorded” stand apart in the source; their conditions may differ.

For `O=c1cc(-c2ccc(O)cc2)oc2cc(O)cc(O)c12` [apigenin, reference compound], the “effect against death caused by a hemotoxic venom (in words)” value (“effect against death caused” for short) in experiment [1] is recorded as “may accelerate death”.

As to `O=c1c(O)c(-c2ccc(O)c(O)c2)oc2cc(O)cc(O)c12` [quercetin], in experiment [2], the “area of cutaneous ulcers compared to pathological control group (in words)” value is reported as “significantly reduced” and the “median effective dose (ED50) for reducing an area of a cutaneous ulcer” value stood at 1200 µM. Also, the “effect against death caused” value in experiment [1] was “effective against death caused by a hemotoxic venom”.

Take `COc1cc(-c2oc3cc(O)cc(O)c3c(=O)c2O)ccc1O` [isorhamnetin]: in experiment [2], the “area of cutaneous ulcers compared to pathological control group (in words)” value is “significantly reduced; also recorded: highest degree of reduction” and the “median effective dose (ED50) for reducing an area of a cutaneous ulcer” value was 200 µM. Also, the “median effective dose (ED50) for reducing an area of a cutaneous ulcer” value in experiment [3] turned out to be 600 µM. Besides, the “effect against death caused” value in experiment [1] is “effective against death caused by a hemotoxic venom”. The “survival (in words)” value in experiment [4] is given as “could even survive until the 48th hour”.
